From PubChem BioAssay AID248 (DTP/NCI, 2004)
Several values for one entry are separate records, joined by “and”; a condition that tells them apart may be missing. Equal values may be shown once. Inconclusive results and toxic doses are left out. Rule as the data show it: active = T/C of 150% or more; inactive = T/C below 125%.

Tested on: L1210 leukemia ip in BDF1 mice, survival T/C
Experiment: NCI In Vivo Anticancer Drug Screen. Data for tumor model L1210 Leukemia (intraperitoneal) in B6D2F1 (BDF1) mice
Settings: endpoint: mean survival time, higher = longer survival
How it was run: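 Ratio derived from survival: compound-dosed mice over vehicle-dosed mice, all bearing a transplantable tumor.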

[1] = dose: 100.0 mg/kg/injection, schedule: Q04DX003 (ip), vehicle: Klucel (hydroxypropylcellulose) (HPC)
[2] = dose: 100.0 mg/kg/injection, schedule: Q01DX001 (ip), vehicle: saline
[3] = dose: 200.0 mg/kg/injection, schedule: Q01DX001 (ip), vehicle: saline
[4] = dose: 400.0 mg/kg/injection, schedule: Q01DX001 (ip), vehicle: saline
[5] = dose: 50.0 mg/kg/injection, schedule: Q01DX001 (ip), vehicle: saline
[6] = dose: 100.0 mg/kg/injection, schedule: Q01DX009 (ip), vehicle: Klucel (hydroxypropylcellulose) (HPC)

Measured: T/C

Cc1cc(=O)n(-c2ccccc2)cn1
inactive: [1] 98 % of control | dose: 200.0 mg/kg/injection, schedule: Q04DX003 (ip), vehicle: Klucel (hydroxypropylcellulose) (HPC) 89 % of control | dose: 400.0 mg/kg/injection, schedule: Q04DX003 (ip), vehicle: Klucel (hydroxypropylcellulose) (HPC) 96 % of control

CNC(=O)CCC(=O)O
inactive: dose: 50.0 mg/kg/injection, schedule: Q04DX003 (ip), vehicle: saline 103 % of control | [2] 102 % of control | dose: 100.0 mg/kg/injection, schedule: Q04DX003 (ip), vehicle: saline 107 % of control | [3] 93 % of control | dose: 200.0 mg/kg/injection, schedule: Q04DX003 (ip), vehicle: saline 108 % of control | [4] 94 % of control

CCCCCCCCCCCCOc1ccc(Sc2ccc([N+](=O)[O-])cc2)cc1
inactive: dose: 100.0 mg/kg/injection, schedule: Q01DX001 (ip), vehicle: Klucel (hydroxypropylcellulose) (HPC) 95 % of control | dose: 200.0 mg/kg/injection, schedule: Q01DX001 (ip), vehicle: Klucel (hydroxypropylcellulose) (HPC) 87 % of control | dose: 400.0 mg/kg/injection, schedule: Q01DX001 (ip), vehicle: Klucel (hydroxypropylcellulose) (HPC) 90 % of control

C(=N\c1oc(-c2ccccc2)nc1SCc1ccccc1)/c1ccccc1
inactive: dose: 100.0 mg/kg/injection, schedule: Q04DX002 (ip), vehicle: Klucel (hydroxypropylcellulose) (HPC) 96 % of control | dose: 200.0 mg/kg/injection, schedule: Q04DX002 (ip), vehicle: Klucel (hydroxypropylcellulose) (HPC) 96 % of control | dose: 400.0 mg/kg/injection, schedule: Q04DX002 (ip), vehicle: Klucel (hydroxypropylcellulose) (HPC) 120 % of control

CNC(=O)Oc1c([N+](=O)[O-])c([N+](=O)[O-])cc2ccccc12
inactive: dose: 75.0 mg/kg/injection, schedule: Q01DX001 (ip), vehicle: other 100 % of control

CCOC(=O)C(C)(c1[nH]c2ccccc2c1C)c1[nH]c2ccccc2c1C
inactive: [5] 103 % of control | [2] 103 % of control | [3] 95 % of control | [4] 89 % of control

CNC(=O)NC1CCOCC1
inactive: [2] 100 % of control | [3] 96 % of control | [4] 96 % of control

Cc1c(C)c(C)c([N+](=O)[O-])c([N+](=O)[O-])c1C
inactive: dose: 50.0 mg/kg/injection, schedule: Q01DX009 (ip), vehicle: saline with Tween-80 112 % of control | dose: 100.0 mg/kg/injection, schedule: Q01DX009 (ip), vehicle: saline with Tween-80 93 % of control | dose: 100.0 mg/kg/injection, schedule: Q04DX002 (ip), vehicle: saline with Tween-80 97 % of control | dose: 200.0 mg/kg/injection, schedule: Q01DX009 (ip), vehicle: saline with Tween-80 93 % of control | dose: 200.0 mg/kg/injection, schedule: Q04DX002 (ip), vehicle: saline with Tween-80 114 % of control

C=CC(=O)c1c(O)cc(O)c2c1C(C)C(=O)O2 (centres undefined)
inactive: [5] 104 % of control | dose: 75.0 mg/kg/injection, schedule: Q01DX009 (ip), vehicle: Klucel (hydroxypropylcellulose) (HPC) 89 % of control | [2] 101 % of control | [1] 106 % of control | [3] 104 % of control

COc1cc(C=C(C#N)C#N)cc(OC)c1OC
inactive: dose: 25.0 mg/kg/injection, schedule: Q04DX002 (ip), vehicle: gum acacia 100 % of control | dose: 50.0 mg/kg/injection, schedule: Q04DX002 (ip), vehicle: gum acacia 110 % of control | dose: 100.0 mg/kg/injection, schedule: Q04DX002 (ip), vehicle: gum acacia 122 % of control and 91 % of control

CN(N)C(=O)Nc1ccccc1[N+](=O)[O-]
inactive: dose: 75.0 mg/kg/injection, schedule: Q01DX001 (ip), vehicle: carboxymethylcellulose (CMC) 96 % of control | dose: 150.0 mg/kg/injection, schedule: Q01DX001 (ip), vehicle: carboxymethylcellulose (CMC) 102 % of control

CCOC(=O)COc1ccc(Cl)cc1
inactive: [6] 97 % of control | dose: 200.0 mg/kg/injection, schedule: Q01DX009 (ip), vehicle: Klucel (hydroxypropylcellulose) (HPC) 103 % of control | dose: 400.0 mg/kg/injection, schedule: Q01DX009 (ip), vehicle: Klucel (hydroxypropylcellulose) (HPC) 92 % of control

CCSc1ccc2c(cc1=O)C(NC(=O)NC)CCc1cc(OC)c(OC)c(OC)c1-2 (centres undefined)
inactive: dose: 25.0 mg/kg/injection, schedule: Q01DX009 (ip), vehicle: Klucel (hydroxypropylcellulose) (HPC) 116 % of control | dose: 50.0 mg/kg/injection, schedule: Q01DX009 (ip), vehicle: Klucel (hydroxypropylcellulose) (HPC) 112 % of control | [6] 92 % of control
